Laboratory results taken from patent publication US20250197485A1, “Anti-ED-A Antibodies for the Treatment of Pulmonary Hypertension” (Universitätsklinikum Jena, priority 2022, published 2025).

How the values were obtained:
[1] = test system: MCT-induced PH; experiment: Histological evaluation of lung tissue damage (sum-score) in mouse model of MCT-induced PH; assay type: in vivo, C57BL/6 mice; settings: MAC p=0.020; F8 IgG p=0.005; KSF IgG p=0.907
Excerpt: PH was induced in C57BL/6 mice (bodyweight: 25-30 g). The animals were obtained from ZET facility (Zentale Experimentelle Tierhaltung) of the University Hospital Jena (UKJ, Jena, Germany). Prior to PH induction, mice were allowed to acclimatize for at least 7 days with ad libitum access to food and water as well as controlled light/dark cycles. 41 animals were investigated divided into the following five experimental groups: • 1) sham induced controls (n=7) • 2) MCT induced PH (n=12) • 3) MCT induced PH+MAC (n=6) • 4) MCT induced PH+F8 IgG (n=8) • 5) MCT induced PH+KSF IgG (n=8) For PH induction, the Monocrotaline (MCT, Carl Roth, Germany) method was used. The sham induced controls were injected with 30 μl NaCl not containing MCT at day 1 (single dose; intraperitoneally, i.p.). […] The other 4 experimental groups were injected with MCT to induce PH (single dose; intraperitoneally, i.p.; 60 mg/kg body weight; volume 30 μl). Animals in the MCT induced PH+MAC group received the drug (Macitentan, Actelion Pharmaceuticals Ltd.) from day 14 to day 28 (once daily; per os; 15 mg/kg body weight). Animals in the MCT induced PH+F8 IgG group received F8 IgG 3 times on day 14, 16 and 18 (intravenously, i.v.; 195 μg/injection; volume 200 μl). Similarly, animals in the MCT induced PH+KSF IgG group received KSF IgG 3 times on day 14, 16 and 18 (intravenously, i.v.; 195 μg/injection; volume 120 μl). Microscopic evaluation to assess histopathological lung tissue damage was performed using H&E as well as Sirius Red stained lung tissue sections according to a defined sum-score (between 0 and 12; maximum score value=highest level of tissue damage) integrating certain histological alterations frequently occurring in PH: percentage of atelectasis area, percentage of emphysema area, degree of media hypertrophy of peribronchial arteries, presence of perivascular cellular edema of peribronchial arteries, and degree of media hypertrophy of small arteries. Statistical analyses were performed using IBM SPSS statistical software, version 28.0 (IBM SPSS Statistics for Windows. Armonk, NY, USA). Data are expressed as mean±standard deviation. Kruskal-Wallis and Mann-Whitney-U test were used to test for significant differences between the different groups. A p-value<0.05 as statistically significant.

[2] = test system: MCT-induced PH; experiment: Right heart catheterization (RVPsys) in mouse model of MCT-induced PH; assay type: in vivo, C57BL/6 mice; settings: day 28; F8 IgG 195 μg i.v. day 14, 16, 18 (p=0.010); MAC 15 mg/kg per os once daily day 14-28 (n.s.)
Excerpt: PH was induced in C57BL/6 mice (bodyweight: 25-30 g). The animals were obtained from ZET facility (Zentale Experimentelle Tierhaltung) of the University Hospital Jena (UKJ, Jena, Germany). Prior to PH induction, mice were allowed to acclimatize for at least 7 days with ad libitum access to food and water as well as controlled light/dark cycles. 41 animals were investigated divided into the following five experimental groups: • 1) sham induced controls (n=7) • 2) MCT induced PH (n=12) • 3) MCT induced PH+MAC (n=6) • 4) MCT induced PH+F8 IgG (n=8) • 5) MCT induced PH+KSF IgG (n=8)
For PH induction, the Monocrotaline (MCT, Carl Roth, Germany) method was used.
The sham induced controls were injected with 30 μl NaCl not containing MCT at day 1 (single dose; intraperitoneally, i.p.). […] The other 4 experimental groups were injected with MCT to induce PH (single dose; intraperitoneally, i.p.; 60 mg/kg body weight; volume 30 μl). Animals in the MCT induced PH+MAC group received the drug (Macitentan, Actelion Pharmaceuticals Ltd.) from day 14 to day 28 (once daily; per os; 15 mg/kg body weight). Animals in the MCT induced PH+F8 IgG group received F8 IgG 3 times on day 14, 16 and 18 (intravenously, i.v.; 195 μg/injection; volume 200 μl). Similarly, animals in the MCT induced PH+KSF IgG group received KSF IgG 3 times on day 14, 16 and 18 (intravenously, i.v.; 195 μg/injection; volume 120 μl).
On day 28 after MCT injection, mice of all experimental groups were deeply anesthetized with a single dose of 100 mg/kg body weight ketamine and 10 mg/kg body weight Xylazin in approximately 60 μl each administered i.p.
Right heart catheterization using a 1.4 F micro conductance pressure-volume catheter (Model SPR-839; Millar Instruments Inc; PowerLab system, ADInstruments Ltd., Oxford, UK) was performed via the right vena jugularis interna to measure the systolic right ventricular pressure and thereby verify the success of the experimental setting. Mice were then sacrificed in deep anesthesia and analgesia to carry out cardiac blood collection after thoracotomy and to harvest the organs.
Statistical analyses were performed using IBM SPSS statistical software, version 28.0 (IBM SPSS Statistics for Windows. Armonk, NY, USA). Data are expressed as mean±standard deviation. Kruskal-Wallis and Mann-Whitney-U test were used to test for significant differences between the different groups. A p-value<0.05 as statistically significant.

Row | Compound | histopathological lung tissue damage (sum-score 0 to 12) compared to the MCT-induced PH group without treatment [1] | attenuation in RVPsys compared to the MCT-induced PH group without treatment (positive control) [2]
1 | CCCNS(=O)(=O)Nc1ncnc(OCCOc2ncc(Br)cn2)c1-c1ccc(Br)cc1 [MAC, Macitentan, reference compound] | significantly reduced | not significant
2 | KSF IgG: Negative control chimaeric antibody specific for hen egg lysozyme, an irrelevant antigen; heavy chain SEQ ID NO: 15, light chain SEQ ID NO: 16 [reference compound] | No reduction | 
